Patent US20240016811A1, “CANCER THERAPY USING A COMBINATION OF CDK7 INHIBITOR WITH AN ANTI-MICROTUBULE AGENT” (Aurigene Oncology Limited, priority 2020, published 2024)
Values joined by “and” are separate entries in the source; they are usually repeats but may differ in a detail not shown here. Equal entries are not always repeated.

Test system: DU 145 cells
Assay: Proliferation of DU 145 cells after 3-day treatment, measured using CTG reagent; single agents and combination, synergy analysed with CompuSyn
Format: cell-based
Details: for inhibition of proliferation in DU145 cells: single agents, conclusion in words
Method: The effect of 3-day compound treatment on cell proliferation was measured using CTG reagent.

**Q.** How did the “% inhibition in proliferation” value (Compound-44A 0.00209 nM, Day-3, replicate columns) turn out when `CC(C)[C@H](C(=O)Nc1cc(C2CC2)[nH]n1)c1cccc(-c2ccc(NC(=O)/C=C/CN3CCOCC3)nc2)c1` (single isomer, unassigned) [Compound-44A] was run?
**A.** 0.7% and −2.6% and 2.1%

**Q.** And the “% inhibition in proliferation” value (Compound-44A 0.00627 nM, Day-3, replicate columns)?
**A.** −1.3% and 3.7% and −0.3%

**Q.** What about the “% inhibition in proliferation” value (Compound-44A 0.01882 nM, Day-3, replicate columns) of the same compound?
**A.** −4.7% and 2.1% and −5.1%

**Q.** And the “% inhibition in proliferation” value (Compound-44A 0.0565 nM, Day-3, replicate columns)?
**A.** −1.2% and 8.1% and 1.7%

**Q.** What about the “% inhibition in proliferation” value (Compound-44A 0.1694 nM, Day-3, replicate columns) of the same compound?
**A.** −3.1% and 4.7% and −5.4%

**Q.** What about the “% inhibition in proliferation” value (Compound-44A 0.5081 nM, Day-3, replicate columns) of the same compound?
**A.** 8.2% and 0.7% and 3.1%

**Q.** What about the “% inhibition in proliferation” value (Compound-44A 1.5242 nM, Day-3, replicate columns) of the same compound?
**A.** 1.6% and −1.5% and 5.6%

**Q.** And the “% inhibition in proliferation” value (Compound-44A 4.5725 nM, Day-3, replicate columns)?
**A.** 5.9% and 3.4%

**Q.** What about the “% inhibition in proliferation” value (Compound-44A 13.7174 nM, Day-3, replicate columns) of the same compound?
**A.** 13.0% and 12.9%

**Q.** What about the “% inhibition in proliferation” value (Compound-44A 41.1523 nM, Day-3, replicate columns) of the same compound?
**A.** 30.9% and 25.2%

**Q.** And the “% inhibition in proliferation” value (Compound-44A 123.4568 nM, Day-3, replicate columns)?
**A.** 56.2% and 55.9%

**Q.** And the “% inhibition in proliferation” value (Compound-44A 370.3704 nM, Day-3, replicate columns)?
**A.** 77.9% and 80.7%

**Q.** What about the “% inhibition in proliferation” value (Compound-44A 1111.1111 nM, Day-3, replicate columns) of the same compound?
**A.** 110.4% and 105.8%

**Q.** And the “% inhibition in proliferation” value (Compound-44A 3333.3333 nM, Day-3, replicate columns)?
**A.** 111.8% and 110.8%

**Q.** And the “% inhibition in proliferation” value (Compound-44A 10000.00 nM, Day-3, replicate columns)?
**A.** 106.1% and 106.3%

**Q.** What about the inhibition at 0.0005 µM (Homo sapiens, DU-145, 72 h, Compound-44A 0.5 nM alone (docetaxel 0), checkerboard, 3 days) of the same compound?
**A.** 3.98%

**Q.** What about the inhibition at 0.0045 µM (Homo sapiens, DU-145, 72 h, Compound-44A 4.5 nM alone (docetaxel 0), checkerboard, 3 days) of the same compound?
**A.** 4.81%

**Q.** And the inhibition at 0.0137 µM (Homo sapiens, DU-145, 72 h, Compound-44A 13.7 nM alone (docetaxel 0), checkerboard, 3 days)?
**A.** 14.6%

**Q.** And the inhibition at 0.0411 µM (Homo sapiens, DU-145, 72 h, Compound-44A 41.1 nM alone (docetaxel 0), checkerboard, 3 days)?
**A.** 29.1%

**Q.** And the inhibition at 0.1234 µM (Homo sapiens, DU-145, 72 h, Compound-44A 123.4 nM alone (docetaxel 0), checkerboard, 3 days)?
**A.** 55.7%

**Q.** And the inhibition at 0.3703 µM (Homo sapiens, DU-145, 72 h, Compound-44A 370.3 nM alone (docetaxel 0), checkerboard, 3 days)?
**A.** 77.6%

**Q.** What about the inhibition at 0.0045725 µM (Homo sapiens, DU-145, Compound-44A 4.5725 nM, Day-3, replicate columns) of the same compound?
**A.** 5.1%

**Q.** And the inhibition at 0.0137174 µM (Homo sapiens, DU-145, Compound-44A 13.7174 nM, Day-3, replicate columns)?
**A.** 18%

**Q.** What about the inhibition at 0.0411523 µM (Homo sapiens, DU-145, Compound-44A 41.1523 nM, Day-3, replicate columns) of the same compound?
**A.** 31.2%

**Q.** And the inhibition at 0.123457 µM (Homo sapiens, DU-145, Compound-44A 123.4568 nM, Day-3, replicate columns)?
**A.** 55%

**Q.** What about the inhibition at 0.37037 µM (Homo sapiens, DU-145, Compound-44A 370.3704 nM, Day-3, replicate columns) of the same compound?
**A.** 74.1%

**Q.** What about the inhibition at 1.11111 µM (Homo sapiens, DU-145, Compound-44A 1111.1111 nM, Day-3, replicate columns) of the same compound?
**A.** 109%

**Q.** What about the inhibition at 3.33333 µM (Homo sapiens, DU-145, Compound-44A 3333.3333 nM, Day-3, replicate columns) of the same compound?
**A.** 112%

**Q.** And the inhibition at 10 µM (Homo sapiens, DU-145, Compound-44A 10000.00 nM, Day-3, replicate columns)?
**A.** 107%

**Q.** And the “inhibition of proliferation in DU145 cells” value?
**A.** dose dependent inhibition of proliferation

**Q.** Which results are given for `CC(=O)O[C@@]12CO[C@@H]1C[C@H](O)[C@@]1(C)C(=O)[C@H](O)C3=C(C)[C@@H](OC(=O)[C@H](O)[C@@H](NC(=O)OC(C)(C)C)c4ccccc4)C[C@@](O)([C@@H](OC(=O)c4ccccc4)[C@H]21)C3(C)C` [Docetaxel, docetaxel]?
**A.** % inhibition in proliferation (Docetaxel 0.0002 nM, Day-3, replicate columns): 1.6% and −0.5% and 3.2%; % inhibition in proliferation (Docetaxel 0.0007 nM, Day-3, replicate columns): −3.9% and −5.1% and 2.9%; % inhibition in proliferation (Docetaxel 0.0021 nM, Day-3, replicate columns): −2.5% and 1.2% and 3.4%; % inhibition in proliferation (Docetaxel 0.0188 nM, Day-3, replicate columns): 0.8% and 0.9% and 10.0%; % inhibition in proliferation (Docetaxel 0.0565 nM, Day-3, replicate columns): 8.8% and 16.0% and 24.0%; % inhibition in proliferation (Docetaxel 0.1694 nM, Day-3, replicate columns): 8.3% and 2.2% and 4.1%; % inhibition in proliferation (Docetaxel 0.5081 nM, Day-3, replicate columns): 15.5% and 18.3%; % inhibition in proliferation (Docetaxel 1.5242 nM, Day-3, replicate columns): 57.5% and 59.4%; % inhibition in proliferation (Docetaxel 4.5725 nM, Day-3, replicate columns): 98.6% and 99.2%; % inhibition in proliferation (Docetaxel 13.7174 nM, Day-3, replicate columns): 117.2% and 114.3%; % inhibition in proliferation (Docetaxel 41.1523 nM, Day-3, replicate columns): 123.1% and 120.5%; % inhibition in proliferation (Docetaxel 123.4568 nM, Day-3, replicate columns): 126.0% and 122.3%; % inhibition in proliferation (Docetaxel 370.3704 nM, Day-3, replicate columns): 125.0% and 123.2%; % inhibition in proliferation (Docetaxel 1111.1111 nM, Day-3, replicate columns): 125.2% and 121.8%; % inhibition in proliferation (Docetaxel 3333.3333 nM, Day-3, replicate columns): 124.1% and 121.7%; % inhibition in proliferation (Docetaxel 10000.00 nM, Day-3, replicate columns): 118.3% and 117.0%; inhibition at 200 fM (Homo sapiens, DU-145, 72 h, Docetaxel 0.0002 nM alone (Compound-44A 0), checkerboard, 3 days): 1.42%; inhibition at 700 fM (Homo sapiens, DU-145, 72 h, Docetaxel 0.0007 nM alone (Compound-44A 0), checkerboard, 3 days): 0%; inhibition at 2.1 pM (Homo sapiens, DU-145, 72 h, Docetaxel 0.0021 nM alone (Compound-44A 0), checkerboard, 3 days): 0.69%; inhibition at 18.8 pM (Homo sapiens, DU-145, 72 h, Docetaxel 0.0188 nM alone (Compound-44A 0), checkerboard, 3 days): 3.89%; inhibition at 56.5 pM (Homo sapiens, DU-145, 72 h, Docetaxel 0.0565 nM alone (Compound-44A 0), checkerboard, 3 days): 16.3%; inhibition at 0.0001694 µM (Homo sapiens, DU-145, 72 h, Docetaxel 0.1694 nM (Table 5: 0.17) alone (Compound-44A 0), checkerboard, 3 days): 4.86%; inhibition at 0.0005081 µM (Homo sapiens, DU-145, 72 h, Docetaxel 0.5081 nM (Table 5: 0.51) alone (Compound-44A 0), checkerboard, 3 days): 15.9%; inhibition at 0.00152 µM (Homo sapiens, DU-145, 72 h, Docetaxel 1.52 nM alone (Compound-44A 0), checkerboard, 3 days): 55.6%; inhibition at 0.00457 µM (Homo sapiens, DU-145, 72 h, Docetaxel 4.57 nM alone (Compound-44A 0), checkerboard, 3 days): 97.5%; inhibition at 0.01372 µM (Homo sapiens, DU-145, 72 h, Docetaxel 13.72 nM alone (Compound-44A 0), checkerboard, 3 days): 116%; inhibition at 0.04115 µM (Homo sapiens, DU-145, 72 h, Docetaxel 41.15 nM alone (Compound-44A 0), checkerboard, 3 days): 122%; inhibition at 0.12346 µM (Homo sapiens, DU-145, 72 h, Docetaxel 123.46 nM alone (Compound-44A 0), checkerboard, 3 days): 125%; inhibition at 0.37037 µM (Homo sapiens, DU-145, 72 h, Docetaxel 370.37 nM alone (Compound-44A 0), checkerboard, 3 days): 125%; inhibition at 1.11111 µM (Homo sapiens, DU-145, 72 h, Docetaxel 1111.11 nM alone (Compound-44A 0), checkerboard, 3 days): 124%; inhibition at 3.33333 µM (Homo sapiens, DU-145, 72 h, Docetaxel 3333.33 nM alone (Compound-44A 0), checkerboard, 3 days): 123%; inhibition at 10 µM (Homo sapiens, DU-145, 72 h, Docetaxel 10000.00 nM alone (Compound-44A 0), checkerboard, 3 days): 118%; inhibition at 6.3 pM (Homo sapiens, DU-145, 72 h, Docetaxel […] alone (Compound-44A 0), checkerboard, 3 days): 0%; inhibition at 0.0005081 µM (Homo sapiens, DU-145, Docetaxel 0.5081 nM, Day-3, replicate columns): 14%; inhibition at 0.0015242 µM (Homo sapiens, DU-145, Docetaxel 1.5242 nM, Day-3, replicate columns): 49.8%; inhibition at 0.0045725 µM (Homo sapiens, DU-145, Docetaxel 4.5725 nM, Day-3, replicate columns): 94.6%; inhibition at 0.0137174 µM (Homo sapiens, DU-145, Docetaxel 13.7174 nM, Day-3, replicate columns): 115%; inhibition at 0.0411523 µM (Homo sapiens, DU-145, Docetaxel 41.1523 nM, Day-3, replicate columns): 123%; inhibition at 0.123457 µM (Homo sapiens, DU-145, Docetaxel 123.4568 nM, Day-3, replicate columns): 126%; inhibition at 0.37037 µM (Homo sapiens, DU-145, Docetaxel 370.3704 nM, Day-3, replicate columns): 126%; inhibition at 1.11111 µM (Homo sapiens, DU-145, Docetaxel 1111.1111 nM, Day-3, replicate columns): 125%; inhibition at 3.33333 µM (Homo sapiens, DU-145, Docetaxel 3333.3333 nM, Day-3, replicate columns): 124%; inhibition at 10 µM (Homo sapiens, DU-145, Docetaxel 10000.00 nM, Day-3, replicate columns): 119%; inhibition of proliferation in DU145 cells: dose dependent inhibition of proliferation
